Patent US8952034B2, “Fused heterocyclic compounds as ion channel modulators” (Gilead Sciences, Inc., priority 2009, dated 2015)

Target: wild-type human cardiac sodium channel, hNav1.5 (Homo sapiens, UniProt Q14524)
Assay: Late INa screening assay (automated whole cell patch clamp, PatchXpress)
Assay type: cell-based
Conditions: HEK293 cells expressing hNav1.5, late INa generated with 10 μM Tefluthrin (or 50 nM ATX II); for inhibition at 1 µM: compound at 1 μM, read-out: LateINa_1 uM (percent block of late INa); for inhibition at 10 µM: compound at 10 μM, read-out: LateINa_10 uM (percent block of late INa)
Summary of the method: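 Late sodium current through wild-type human hNav1.5 stably expressed in HEK293 cells (no beta subunits) was recorded by automated whole-cell patch clamp on a PatchXpress 7000A at 24-27° C. Late INa was induced with 10 μM Tefluthrin or 50 nM ATX II. Cells were stepped from −120 mV to −20 mV for 250 ms at 0.1 Hz, and percent block was normalized to current in Na-free extracellular solution.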

wild-type human cardiac sodium channel, hNav1.5, sequence (Q14524 whole entry): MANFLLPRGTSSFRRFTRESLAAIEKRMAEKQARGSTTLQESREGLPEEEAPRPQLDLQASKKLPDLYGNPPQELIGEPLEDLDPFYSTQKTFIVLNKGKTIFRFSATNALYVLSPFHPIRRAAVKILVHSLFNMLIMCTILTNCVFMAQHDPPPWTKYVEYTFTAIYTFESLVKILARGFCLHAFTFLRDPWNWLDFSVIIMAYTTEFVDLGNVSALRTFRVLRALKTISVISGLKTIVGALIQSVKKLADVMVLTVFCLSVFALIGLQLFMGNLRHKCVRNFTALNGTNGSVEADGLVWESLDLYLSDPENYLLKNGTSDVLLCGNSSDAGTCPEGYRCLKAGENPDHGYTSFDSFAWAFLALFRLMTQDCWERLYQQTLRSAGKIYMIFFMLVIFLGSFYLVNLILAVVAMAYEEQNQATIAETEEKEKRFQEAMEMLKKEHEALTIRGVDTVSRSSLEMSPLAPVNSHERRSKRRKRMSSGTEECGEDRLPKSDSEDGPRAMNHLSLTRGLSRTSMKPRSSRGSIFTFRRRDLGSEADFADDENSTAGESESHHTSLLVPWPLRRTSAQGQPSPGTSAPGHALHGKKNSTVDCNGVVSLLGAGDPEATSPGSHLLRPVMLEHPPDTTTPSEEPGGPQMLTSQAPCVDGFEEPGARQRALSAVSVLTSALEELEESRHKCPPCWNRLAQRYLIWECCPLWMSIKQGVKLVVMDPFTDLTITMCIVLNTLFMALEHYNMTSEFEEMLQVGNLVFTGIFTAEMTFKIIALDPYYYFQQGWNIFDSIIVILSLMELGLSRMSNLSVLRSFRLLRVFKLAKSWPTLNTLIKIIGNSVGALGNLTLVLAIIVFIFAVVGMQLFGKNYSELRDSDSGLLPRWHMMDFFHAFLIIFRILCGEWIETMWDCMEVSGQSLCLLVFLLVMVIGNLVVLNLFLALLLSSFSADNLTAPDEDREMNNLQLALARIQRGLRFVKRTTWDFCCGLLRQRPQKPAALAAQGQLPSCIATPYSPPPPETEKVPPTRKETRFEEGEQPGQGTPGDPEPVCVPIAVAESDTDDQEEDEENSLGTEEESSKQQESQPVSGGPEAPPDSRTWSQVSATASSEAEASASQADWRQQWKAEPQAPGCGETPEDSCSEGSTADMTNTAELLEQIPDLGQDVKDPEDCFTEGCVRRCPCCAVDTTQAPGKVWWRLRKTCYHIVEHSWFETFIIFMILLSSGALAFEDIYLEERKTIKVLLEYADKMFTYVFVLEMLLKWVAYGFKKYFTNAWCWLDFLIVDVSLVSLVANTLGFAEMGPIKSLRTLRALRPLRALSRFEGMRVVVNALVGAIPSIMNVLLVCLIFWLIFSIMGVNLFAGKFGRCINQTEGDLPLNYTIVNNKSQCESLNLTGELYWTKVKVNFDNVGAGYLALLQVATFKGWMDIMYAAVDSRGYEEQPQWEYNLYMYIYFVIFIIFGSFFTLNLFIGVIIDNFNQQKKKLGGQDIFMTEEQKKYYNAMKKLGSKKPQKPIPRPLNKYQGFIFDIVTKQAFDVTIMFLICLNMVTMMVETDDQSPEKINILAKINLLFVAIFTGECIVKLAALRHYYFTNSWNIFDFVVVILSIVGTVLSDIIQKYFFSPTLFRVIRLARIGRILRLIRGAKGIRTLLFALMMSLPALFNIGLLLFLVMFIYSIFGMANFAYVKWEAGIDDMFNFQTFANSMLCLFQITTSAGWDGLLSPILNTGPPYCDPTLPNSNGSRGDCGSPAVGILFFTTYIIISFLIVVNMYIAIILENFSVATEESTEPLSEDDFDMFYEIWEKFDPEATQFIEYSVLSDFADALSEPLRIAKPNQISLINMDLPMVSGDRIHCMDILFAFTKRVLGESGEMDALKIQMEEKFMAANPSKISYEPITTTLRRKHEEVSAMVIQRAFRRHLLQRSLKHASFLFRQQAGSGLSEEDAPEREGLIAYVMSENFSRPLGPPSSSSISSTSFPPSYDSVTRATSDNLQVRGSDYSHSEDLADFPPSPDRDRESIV

SMILES	inhibition at 1 µM	inhibition at 10 µM
COCC(F)(F)c1nnc2ccc(-c3ccc(Oc4ccc(Cl)cc4)cc3)cn12 [BHN-137, 6-[4-(4-chlorophenoxy)phenyl]-3-(1,1-difluoro-2-methoxyethyl)[1,2,4]triazolo[4,3-a]pyridine]	48.2%	
FC(F)(F)c1ncc2ccc(-c3nc4ccccc4s3)cn12 [BHN-213, 2-[3-(trifluoromethyl)imidazo[1,5-a]pyridin-6-yl]-1,3-benzothiazole]	24%	
FC(F)(F)Oc1ccc(-c2ccc3nnc(C(F)(F)OCc4coc(-c5ccccc5)n4)n3c2)cc1 [BHN-299, 3-{difluoro[(2-phenyl-1,3-oxazol-4-yl)methoxy]methyl}-6-[4-(trifluoromethoxy)phenyl][1,2,4]triazolo[4,3-a]pyridine]	51.1%	
FC(F)(F)c1ncc2ccc(-c3nc4ccccc4o3)cn12 [BHN-196, 2-[3-(trifluoromethyl)imidazo[1,5-a]pyridin-6-yl]-1,3-benzoxazole]	26.8%	
Fc1ccc(COCc2nnc3ccc(-c4ccc(OC(F)(F)F)cc4)cn23)c(F)c1 [BHN-240, 3-{[(2,4-difluorobenzyl)oxy]methyl}-6-[4-(trifluoromethoxy)phenyl][1,2,4]triazolo[4,3-a]pyridine]	83.4%	
FC(F)(F)Oc1ccc(-c2ccc3nnc(C(F)(F)OCc4nc(-c5ccccc5)oc4C(F)(F)F)n3c2)cc1 [BHN-313, 3-(difluoro{[2-phenyl-5-(trifluoromethyl)-1,3-oxazol-4-yl]methoxy}methyl)-6-[4-(trifluoromethoxy)phenyl][1,2,4]triazolo[4,3-a]pyridine]	50%	
Fc1ccc(Oc2ccc(-c3ccc4nnc(C(F)(F)F)n4c3)cc2)cc1 [BHN-64, 6-[4-(4-fluorophenoxy)phenyl]-3-(trifluoromethyl)[1,2,4]triazolo[4,3-a]pyridine]	38.2%	69.6%
FC(F)c1nnc2ccc(-c3ccc(Oc4ccccc4)cc3)nn12 [BHN-13, 3-(difluoromethyl)-6-(4-phenoxyphenyl)[1,2,4]triazolo[4,3-b]pyridazine]	44.8%	87.1%
FC(F)(F)Oc1ccc(-c2ccc3nnc(C(F)(F)F)n3c2)cc1-c1nnco1 [BHN-153, 6-[3-(1,3,4-oxadiazol-2-yl)-4-(trifluoromethoxy)phenyl]-3-(trifluoromethyl)[1,2,4]triazolo[4,3-a]pyridine]	17.2%	
FC(F)(F)Oc1ccc(-c2ccc3nnc(C(F)(F)F)n3c2)cc1Cl [BHN-164, 6-[3-chloro-4-(trifluoromethoxy)phenyl]-3-(trifluoromethyl)[1,2,4]triazolo[4,3-a]pyridine]	50.7%	
FC(F)(F)Oc1ccc(-c2ccc3nnc(COCC4CC4)n3c2)cc1 [BHN-128, 3-[(cyclopropylmethoxy)methyl]-6-[4-(trifluoromethoxy)phenyl][1,2,4]triazolo[4,3-a]pyridine]	65.6%	
COCC(F)(F)c1nnc2ccc(-c3ccc(Oc4ccc(F)cc4)cc3)cn12 [BHN-138, 3-(1,1-difluoro-2-methoxyethyl)-6-[4-(4-fluorophenoxy)phenyl][1,2,4]triazolo[4,3-a]pyridine]	42.8%	
FC(F)(F)c1ccc(-c2ccc3nnc(C(F)(F)OCc4cc(-c5ccccc5)on4)n3c2)cn1 [BHN-319, 3-{difluoro[(5-phenyl-1,2-oxazol-3-yl)methoxy]methyl}-6-[6-(trifluoromethyl)pyridin-3-yl][1,2,4]triazolo[4,3-a]pyridine]	30.5%	
FC(F)(F)c1ncc(-c2ccc3nnc(C(F)(F)F)n3c2)cn1 [BHN-122, 3-(trifluoromethyl)-6-[2-(trifluoromethyl)pyrimidin-5-yl][1,2,4]triazolo[4,3-a]pyridine]	31.8%	
N#Cc1cc(Cl)ccc1Nc1ccc(-c2ccc3nnc(C(F)(F)F)n3c2)cc1 [BHN-276, 5-chloro-2-({4-[3-(trifluoromethyl)[1,2,4]triazolo[4,3-a]pyridin-6-yl]phenyl}amino)benzonitrile]	16.2%	
Fc1ccc(-c2cc(COC(F)(F)c3nnc4ccc(-c5ccc(OC(F)(F)F)cc5)cn34)no2)cc1 [BHN-318, 3-(difluoro{[5-(4-fluorophenyl)-1,2-oxazol-3-yl]methoxy}methyl)-6-[4-(trifluoromethoxy)phenyl][1,2,4]triazolo[4,3-a]pyridine]	28.9%	
Cc1nc2ccc(-c3cccc(Oc4ccccc4)c3)cn2n1 [BHN-348, 2-methyl-6-(3-phenoxyphenyl)[1,2,4]triazolo[1,5-a]pyridine]		65.7%
FC(F)(F)c1nnc2cnc(-c3ccc(Oc4ccccc4)cc3)cn12 [BHN-16, 6-(4-phenoxyphenyl)-3-(trifluoromethyl)[1,2,4]triazolo[4,3-a]pyrazine]		54.3%
CCNc1nnc2ccc(-c3ccc(Oc4ccccc4)cc3)cn12 [BHN-334, N-ethyl-6-(4-phenoxyphenyl)[1,2,4]triazolo[4,3-a]pyridin-3-amine]		40.6%
Fc1ccc(COCc2nnc3ccc(-c4ccc(OC(F)(F)F)cc4)cn23)cc1 [BHN-227, 3-{[(4-fluorobenzyl)oxy]methyl}-6-[4-(trifluoromethoxy)phenyl][1,2,4]triazolo[4,3-a]pyridine]	79.8%	
FC(F)(F)Oc1ccc(-c2ccc3nnc(C(F)(F)COCc4cc(-c5ccc(Cl)cc5)no4)n3c2)cc1 [BHN-235, 3-(2-{[3-(4-chlorophenyl)-1,2-oxazol-5-yl]methoxy}-1,1-difluoroethyl)-6-[4-(trifluoromethoxy)phenyl][1,2,4]triazolo[4,3-a]pyridine]	41.5%	
CC(C)c1nnc2ccc(-c3ccc(OCC(F)(F)F)nc3)nn12 [BHN-203, 3-(propan-2-yl)-6-[6-(2,2,2-trifluoroethoxy)pyridin-3-yl][1,2,4]triazolo[4,3-b]pyridazine]	19.3%	
COCC(F)(F)c1nnc2ccc(C#Cc3ccc(F)cc3)cn12 [BHN-310, 3-(1,1-difluoro-2-methoxyethyl)-6-[(4-fluorophenyl)ethynyl][1,2,4]triazolo[4,3-a]pyridine]	21.7%	
CC1(c2ccc(-c3ccc4nnc(C(F)(F)F)n4c3)cc2)OCCO1 [BHN-162, 6-[4-(2-methyl-1,3-dioxolan-2-yl)phenyl]-3-(trifluoromethyl)[1,2,4]triazolo[4,3-a]pyridine]	29.9%	
COC(F)(F)c1nnc2ccc(-c3ccc(OC(F)(F)F)cc3)cn12 [BHN-140, 3-[difluoro(methoxy)methyl]-6-[4-(trifluoromethoxy)phenyl][1,2,4]triazolo[4,3-a]pyridine]	53.2%	
FC(F)(F)Oc1ccc(-c2ccc3nnc(-c4ccc(OC(F)(F)F)cc4)n3n2)cc1 [BHN-118, 3,6-bis[4-(trifluoromethoxy)phenyl][1,2,4]triazolo[4,3-b]pyridazine]	46.3%	
FC(F)(F)COc1ccc(-c2ccc3nnnn3c2)cn1 [BHN-219, 6-[6-(2,2,2-trifluoroethoxy)pyridin-3-yl]tetrazolo[1,5-a]pyridine]	36.9%	
OCCOC(F)(F)c1nnc2ccc(-c3ccc(OC(F)(F)F)cc3)cn12 [BHN-157, 2-(difluoro{6-[4-(trifluoromethoxy)phenyl][1,2,4]triazolo[4,3-a]pyridin-3-yl}methoxy)ethanol]	18.3%	
CSc1ccc(-c2ccc3cnc(C(F)(F)F)n3c2)cn1 [BHN-101, 6-[6-(methylsulfanyl)pyridin-3-yl]-3-(trifluoromethyl)imidazo[1,5-a]pyridine]	32.3%	
